Measurements taken from US20090012000A1, “Anti-Viral Peptide and Use Thereof” (TOAGOSEI CO., LTD., priority 2006, published 2009).
Ends that are not written are not given here.

What was measured:
[1] = system: HVT (turkey herpes virus); assay: HVT multiplication suppression test in CEF cells, titer by plaque assay; assay type: cell-based, turkey herpes virus (FC-126 strain); conditions: for antiviral activity (viral multiplication suppression effect): result in words, peptide 10, 50 and 100 μM; for Ratio (relative ratio of virus titer, no peptide added = 1) / Titer: CEF cells, six days
Experimental: The antiviral activity (viral multiplication suppression effect) was examined for each sample antiviral peptide and each comparative sample peptide. In the present example, HVT (turkey herpes virus) was used as the target virus, and the titer was measured based on the plaque assay method.
That is to say, chicken embryo fibroblast (CEF) cells prepared from SPF (specific pathogen-free) embryonated hen's egg (purchased from Nisseiken Co., LTD) were monolayer-cultured at 37° C. using Leibowitz-McCoy 5A (1:1) mixed culture medium (LM medium). The culture was peeled from the culture dish by trypsin digestion and transferred to a 50 mL centrifugation tube. After centrifugal separation, the supernatant was discarded and the culture was suspended with LM medium.
HVT (FC-126 strain used as vaccine), which virus titer was measured beforehand, was diluted with this cell suspension to as to have 100 plaque forming units (PFU) or 400 PFU per 2 mL. This dilute solution was dispensed in each well of a 6-well plate, 2 mL in each. Then, the test peptides (Samples 1 to 4, Comparative Samples 1 to 4) were diluted with PBS to be at 2.1 mM, 1050 μM and 210 μM, and added to each well, 0.1 mL in each. The final concentration of each well after addition was respectively 100 μM, 50 μM and 10 μM. A well to which 0.1 mL of PBS not containing peptide was added was prepared as a reference.
Thereafter, the above 6-well plate was placed in a CO2 incubator (5% CO2), cultured at 37° C. for six days, and the number and size of HVT plaques that appeared were observed. Here, comparing with wells with no peptide added, when a drop in the number of plaques or a reduction in the size of plaques was not observed even when a peptide was added, the viral multiplication suppression effect of this peptide was determined to be none. On the other hand, a test peptide for which a well with smaller plaque number or plaque size was present, the titer of each well was measured, and the viral multiplication suppression effect (antiviral activity) was quantified by comparing with the quantity of virus with no peptide added.
For the method for measuring the HVT virus titer, cells in each well were recovered by trypsin digestion, serially diluted, mixed again with CEF cells, dispensed in a 6-well plate and cultured at 37° C., and the number of plaques appeared after six days were counted. The relative ratio of virus titer at each peptide concentration was determined with the virus titer (PFU/mL) of the well with no peptide added being 1. That is to say, the viral multiplication suppression effect of each test peptide can be compared using the value of this relative ratio (Ratio).

[2] = system: A/New Calcdonia/20/99 (H1N1) influenza virus; assay: Influenza virus multiplication inhibition assay (plaque assay) in MDCK cells; assay type: cell-based; conditions: 48 hours; for Infectivity Titer, Trial 1: control 1.1 × 10^9; for Infectivity Titer, Trial 2: control 2.1 × 10^9

Substance	antiviral activity (viral multiplication suppression effect) [1]	Ratio (relative ratio of virus titer, no peptide added = 1) ([1]; peptide 100 μM)	Infectivity Titer, Trial 1 ([2]; peptide 100 μM)	further results
EFFDAPE-COOH (EFFDAPE-OH; listed as Homo sapiens) [Comparative Sample 3, reference compound]	no viral multiplication suppression effect			
FKIKITTAPKRYCVRPN-NH2 [Comparative Sample 4, reference compound]	no viral multiplication suppression effect			
RKKKRKV FKIKTTAPKRYCVRPN-CONH2 (RKKKRKVFKIKTTAPKRYCVRPN-NH2) [Sample 3]	excellent antiviral activity	0.30		
RKKKRKV FKVKTTAPKRYCVRPN-CONH2 (RKKKRKVFKVKTTAPKRYCVRPN-NH2) [Sample 6]			3.3 × 10^8 PFU/mL	Infectivity Titer, Trial 1 ([2]; peptide 200 μM): 1.0 × 10^8 PFU/mL
RKKKRKV FKVKTTAPRRYCVRPN-CONH2 (RKKKRKVFKVKTTAPRRYCVRPN-NH2) [Sample 5]			3.5 × 10^8 PFU/mL	Infectivity Titer, Trial 1 ([2]; peptide 50 μM): 1.0 × 10^9 PFU/mL; Infectivity Titer, Trial 2 ([2]; peptide 50 μM): 1.2 × 10^9 PFU/mL; Infectivity Titer, Trial 2 ([2]; peptide 100 μM): 6.9 × 10^8 PFU/mL
RKKKRKV-COOH (RKKKRKV-OH) [Comparative Sample 2, reference compound]	no viral multiplication suppression effect			
RQARRNRRRRWR EFFDAPE-CONH2 (RQARRNRRRRWREFFDAPE-NH2) [Sample 1]		0.90		
RQARRNRRRRWR EFFDARE-CONH2 (RQARRNRRRRWREFFDARE-NH2) [Sample 2]		0.80		
RQARRNRRRRWR FKVKTTSPKKYFVRPN-CONH2 (RQARRNRRRRWRFKVKTTSPKKYFVRPN-NH2) [Sample 4]	excellent antiviral activity	0.16	5.8 × 10^8 PFU/mL	Infectivity Titer, Trial 1 ([2]; peptide 200 μM): 2.8 × 10^8 PFU/mL; Ratio (relative ratio of virus titer, no peptide added = 1) ([1]; peptide 10 μM): 1.0; Titer ([1]; peptide 10 μM): (7.6 × 10^4) PFU/mL; Ratio (relative ratio of virus titer, no peptide added = 1) ([1]; peptide 50 μM): 0.46; Titer ([1]; peptide 50 μM): (3.5 × 10^4) PFU/mL; Titer ([1]; peptide 100 μM): (1.2 × 10^4) PFU/mL
RQARRNRRRRWR-COOH (RQARRNRRRRWR-OH) [Comparative Sample 1, reference compound]	no viral multiplication suppression effect			
